Experimental data published in paper PMC6321291, “Synthesis, Biological Evaluation and Docking Studies of Benzoxazoles Derived from Thymoquinone” (Molecules, 2018).
≈ marks a conversion by molar mass, not a printed value.

How the values were obtained:
[1] = system: SW620 (colorectal adenocarcinoma, metastatic); test: MTT assay, SW620; type: cell-based; settings: Homo sapiens, SW-620, 72 h
Method: (§1) The tested compounds were dissolved in DMSO in five, 10-fold dilutions (0.01–100 µM). The cell lines HeLa (cervical carcinoma), SW620 (colorectal adenocarcinoma, metastatic), HepG2 (hepatocellular carcinoma), CFPAC-1 (ductal pancreatic adenocarcinoma), and WI38 (human lung fibroblast cell line), were cultured as monolayers and maintained in Dulbecco’s modified Eagle medium (DMEM) supplemented with 10% fetal bovine serum (FBS), 2 mM L-glutamine, 100 U mL^−1 penicillin and 100 μg mL^−1 streptomycin in a humidified atmosphere with 5% CO2 at 37 °C.
(§2) The MTT assay was used for evaluation of effects of tested compounds on viability of carcinoma and control cell lines. About 5000 cells per well were seeded onto a series of standard 96-well plates on day 0. Test agents were then added and incubated for further 72 h. Working dilutions of tested compounds were freshly prepared in the growth medium, on the day of testing. The solvent (DMSO) was also tested for eventual inhibitory activity by adjusting its concentration to be the same as in the working concentrations (DMSO concentration never exceeded 0.1%). After 72 h of incubation, the cell growth rate was evaluated by performing the MTT assay: experimentally determined absorbance values were transformed into a cell percentage growth (PG) using the formulas proposed by NIH and described previously. This method directly relies on control cells number at the day of assay because it compares the growth of treated cells with the growth of untreated cells in control wells on the same plate, the results are therefore a percentile difference from the calculated expected value.
(§3) If, however, all of the tested concentrations produce PGs exceeding the respective reference level of effect (e.g., PG value of 50) for a given cell line, the highest tested concentration is assigned as the default value (in the screening data report that default value is preceded by a “>” sign). Each test point was performed in quadruplicate in three individual experiments. The results were statistically analyzed (Analysis of variance (ANOVA), Tukey post-hoc test at p < 0.05). Finally, the effects of the tested substances were evaluated by plotting the mean percentage growth for each cell type in comparison to control on dose response graphs.

[2] = system: CFPAC-1 (ductal pancreatic adenocarcinoma); test: MTT assay, CFPAC-1; type: cell-based; settings: Homo sapiens, 72 h
Method: as §1, §2, §3

[3] = system: HepG2 (hepatocellular carcinoma); test: MTT assay, HepG2; type: cell-based; settings: Homo sapiens, 72 h
Method: as §1, §2, §3

[4] = system: HeLa (cervical carcinoma); test: MTT assay, HeLa; type: cell-based; settings: Homo sapiens, 72 h
Method: as §1, §2, §3

[5] = MTT assay, WI38 healthy control; type: cell-based; settings: WI38 human lung fibroblast cells, WI38 healthy control human fibroblast cell line
Method: as §1, §2, §3

phospho (Ser 473) Akt [6] = test: Western blot, pAkt in HeLa cells; type: cell-based, human; settings: IC50 concentration, 48 h treatment
Method: (§4) Protein lysates were lysed in the buffer 50 mM Tris HCl (pH 8), 150 mM NaCl, 1% NP-40, 0.5% sodium deoxycholate, 0.1% SDS and protease and phosphatase inhibitor cocktail (Roche, Basel, Switzerland). A total of 50 μg of proteins were resolved on 10% SDS polyacrylamide gels by use of Mini-protean cell (Bio-Rad, Hercules, CA, USA). Membranes were incubated with primary antibodies against phospho (Tyr 1135) -IGF1 Receptor β (1:1000, rabbit mAb, Cell Signalling Technology, Danvers, MA, USA), phospho (Ser 473) Akt (1:1000, rabbit mAb, Cell Signalling Technology) and α tubulin (1:1000, mouse mAb, Sigma Aldrich) at 4 °C overnight. Secondary antibody linked to anti-mouse was used at 1:1000 (Dako, Santa Clara, CA, USA) and to anti-rabbit at 1:1000 (Dako). Signals were visualized by Western Lightening Chemiluminescence Reagent Plus Kit (Perkin Elmer, USA) on the ImageQuant LAS500 (GE Healthcare, Chicago, IL, USA). Signal intensities of particular bands were normalized with the intensity of the loading control α tubulin and compared in Quantity One software (Bio-Rad). The values are expressed as average value of three independent experiments ± standard error of the mean. Statistical analysis was performed in Microsoft Excel (Microsoft Corporation, Redmond, WA, USA) by using the ANOVA (p < 0.05).

phospho (Ser 473) Akt [7] = test: Western blot, pAkt in HepG2 cells; type: cell-based, human; settings: IC50 concentration
Method: as §4

[8] = system: phospho (Tyr 1135) -IGF1 Receptor β; test: Western blot, IGF1 Receptor β activated form in HeLa cells; type: cell-based, human; settings: IC50 concentration, 24 and 48 h treatments
Method: as §4

[9] = system: phospho (Tyr 1135) -IGF1 Receptor β; test: Western blot, IGF1 Receptor β activated form in HepG2 cells; type: cell-based, human; settings: IC50 concentration
Method: as §4

[10] = system: Escherichia coli ATCC 25922; test: Micro-dilution MIC assay, E. coli; type: cell-based; settings: ATCC25922, 24 h at 37 °C
Method: (§5) Antimicrobial activity of compounds was evaluated in vitro on eight bacterial strains (Escherichia coli ATCC 25922 (ATCC = American Type Culture Collection, Manassas, VA, USA), Pseudomonas aeruginosa ATCC 9027, Proteus hauseri ATCC 13315, Klebsiella pneumoniae ATCC 10031, Staphylococcus aureus ATCC 6538, Bacillus subtilis ATCC 6633, Clostridium sporogenes ATCC 19404 and Micrococcus luteus ATCC 10240) and three fungi (Candida albicans ATCC 10231, Saccharomyces cerevisiae ATCC 9763 and Aspergillus brasiliensis ATCC 16404).
(§6) Micro-dilution assay was used for determination of tested compounds MIC. A serial dilution method in sterile 96-well microtitre plates was performed. Fresh Mueller–Hinton broth (for bacteria) and Sabouraud dextrose broth (for fungi) were used. In sterile physiological solution, suspensions containing 1.5 × 10^8 CFU mL^−1 for bacteria and 1.5 × 10^7 CFU mL^−1 for fungi were made (according to McFarland). One hundred microliters of broth were added to each well of the plate. Stock solutions of tested compounds were made in DMSO at concentration 10 mg mL^−1, and then 100 μL of the compound stock solution was added to each well of the first column. Double dilution was made in whole row for one tested compound, and repeated for all tested compounds in other rows. Amikacin served as positive control for bacteria, while nystatin served as positive control for fungi. The solvent (DMSO) was used as the negative control. Afterwards, each well was inoculated with 10 μL of microorganism suspension. After incubation, 24 h at 37 °C for bacteria and 48 h at 25 °C for fungi, results were read. The lowest concentration where no growth of microorganism was detected represented MIC.

[11] = system: Pseudomonas aeruginosa ATCC 9027; test: Micro-dilution MIC assay, P. aeruginosa; type: cell-based; settings: ATCC9027, 24 h at 37 °C
Method: as §5, §6

[12] = system: Proteus hauseri ATCC 13315; test: Micro-dilution MIC assay, P. hauseri; type: cell-based; settings: ATCC13315, 24 h at 37 °C
Method: as §5, §6

[13] = system: Klebsiella pneumoniae ATCC 10031; test: Micro-dilution MIC assay, K. pneumoniae; type: cell-based; settings: ATCC10031, 24 h at 37 °C
Method: as §5, §6

[14] = system: Staphylococcus aureus ATCC 6538; test: Micro-dilution MIC assay, S. aureus; type: cell-based; settings: ATCC6538, 24 h at 37 °C
Method: as §5, §6

[15] = system: Bacillus subtilis ATCC 6633; test: Micro-dilution MIC assay, B. subtilis; type: cell-based; settings: ATCC6633, 24 h at 37 °C
Method: as §5, §6

[16] = system: Clostridium sporogenes ATCC 19404; test: Micro-dilution MIC assay, C. sporogenes; type: cell-based; settings: ATCC19404, 24 h at 37 °C
Method: as §5, §6

[17] = system: Micrococcus luteus ATCC 10240; test: Micro-dilution MIC assay, M. luteus; type: cell-based; settings: ATCC10240, 24 h at 37 °C
Method: as §5, §6

[18] = system: Candida albicans ATCC 10231; test: Micro-dilution MIC assay, C. albicans; type: cell-based; settings: Candida albicans, ATCC10231, 48 h at 25 °C, read-out: MIC
Method: as §5, §6

[19] = system: Saccharomyces cerevisiae ATCC 9763; test: Micro-dilution MIC assay, S. cerevisiae; type: cell-based; settings: Saccharomyces cerevisiae, ATCC9763, 48 h at 25 °C, read-out: MIC
Method: as §5, §6

[20] = system: Aspergillus brasiliensis ATCC 16404; test: Micro-dilution MIC assay, A. brasiliensis; type: cell-based; settings: Aspergillus brasiliensis, ATCC16404; A. braziliensis; 48 h at 25 °C; read-out: MIC
Method: as §5, §6

IC50 [1] [µM] | IC50 [2] [µM] | IC50 [3] [µM] | IC50 [4] [µM] | IC50 at 72 h [5] [µM] | melting point [°C] | Compound | also measured
54.9 | > 100 | > 100 | > 100 | 6.21 | 188 | Cc1c(O)cc(C(C)C)c2oc(-c3ccc([N+](=O)[O-])cc3)nc12 [1g, 4-Methyl-2-(4-nitrophenyl)-7-isopropyl-1,3-benzoxazole-5-ol] | 
55.3 | 40.6 | 4.58 | 6.38 | 9.32 | 168 | COc1cc(-c2nc3c(C)c(O)cc(C(C)C)c3o2)ccc1O [1i, 2-(4-Hydroxy-3-methoxyphenyl)-4-methyl-7-isopropyl-1,3-benzoxazole-5-ol] | 
> 100 | 90.2 | 39.3 | 32.2 | 19.9 | 164 | Cc1c(O)cc(C(C)C)c2oc(-c3ccccc3)nc12 [1a, 4-Methyl-2-phenyl-7-isopropyl-1,3-benzoxazole-5-ol] | 
31.6 | 27 | 7.28 | 10.3 | 9.97 | 152 | Cc1c(O)cc(C(C)C)c2oc(-c3cccs3)nc12 [1j, 4-Methyl-7-isopropyl-2-(thiophene-2-yl)-1,3-benzoxazole-5-ol] | 
5.82 | 33.8 | 9.36 | 4.13 | 5.54 |  | Cc1c(O)cc(C(C)C)c2oc(-c3ccc(F)cc3)nc12 [1f, 2-(4-Fluorophenyl)-4-methyl-7-isopropyl-1,3-benzoxazole-5-ol] | pAkt levels (western blot) (phospho (Ser 473) Akt [6]): significantly decreased pAkt levels; inhibition of Akt phosphorylation (western blot) (phospho (Ser 473) Akt [7]; 24 h treatment): significant effect; pAkt signal (western blot) (phospho (Ser 473) Akt [7]; 48 h treatment): absence of pAkt signal; IGF1 Receptor β activated form expression (western blot) [8]: not detectable; IGF1 Receptor β activated form expression (western blot) ([9]; 24 h treatment): significantly decreased expression; IGF1 Receptor β activated form expression (western blot) ([9]; 48 h treatment): lack of signal

Compound | IC50 [1] [µM] | IC50 [2] [µM] | IC50 [3] [µM] | IC50 [4] [µM] | IC50 at 72 h [5] [µM] | melting point [°C] | also measured
CC1=C(N)C(=O)C(C(C)C)=CC1=O [ATQ, 3-Aminothymoquinone] | 25.8 | 30.9 | 8.26 | 15.7 | 9.41 |  | MIC [10]: 112 µM (≈ 20 µg/mL); MIC [11]: 218 µM (≈ 39 µg/mL); MIC [12]: 218 µM (≈ 39 µg/mL); MIC [13]: 435 µM (≈ 78 µg/mL); MIC [14]: 112 µM (≈ 20 µg/mL); MIC [15]: 218 µM (≈ 39 µg/mL); MIC [16]: 435 µM (≈ 78 µg/mL); MIC [17]: 59.7 µM (≈ 10.7 µg/mL); MIC [18]: 1750 µM (≈ 314 µg/mL); MIC [19]: 220 µM (≈ 39.4 µg/mL); MIC [20]: 880 µM (≈ 158 µg/mL)
